Patent US20230149393A1, “INHIBITORS OF TRPC6 FOR TREATING RESPIRATORY CONDITIONS” (Boehringer Ingelheim International GmbH, priority 2020, published 2023)

Columns and labels:
PASMC = settings: cited from earlier work
TRPC6 = settings: lung tissue of IPAH patients; cited from earlier work
[1] = test system: virus Influenza A (strain: PR8/34/H1N1); experiment: Reduction of H1N1-induced vascular leakage in a mouse model (BALF Evans blue); type: in vivo, Mice; settings: 3 mg/kg p.o., 2 h after inoculation and once daily day 1 to day 4; day 6 after inoculation
Experimental: Mice were inoculated intranasally with 200 PFU (Plaque Formation Unit) of virus Influenza A (strain: PR8/34/H1N1). […] was given at 3 mg/kg p.o. 2 h after inoculation and once daily from day 1 to day 4. Evans blue was injected intravenously on day 6, 30 min prior to the euthanasia. […] The supernatant was collected for the measurement of Evans blue by spectrophotometry at the absorbance of 620 nm
At day 6 after inoculation, H1N1 induced lung vascular leakage characterized by an increase in Evans blue extravasation from the blood to the BALF.

[2] = test system: LPS-induced vascular leakage; experiment: Reduction of LPS-induced vascular leakage in a mouse model (BALF protein); settings: FIGS. 1A, 1B and 1C; LPS aerosol mouse model
[3] = Phase 1 study, healthy adults; cited from earlier work

## COc1ccccc1Oc1c(NS(=O)(=O)c2ccc(C(C)(C)C)cc2)nc(-c2ncccn2)nc1OCCO [bosentan]
PASMC
  proliferation of PASMC: decreases proliferation of PASMC
TRPC6
  expression of TRPC6: decreases expression of TRPC6

## COc1cc(C(=O)N2CCC(c3ccc(N)nn3)CC2)ncc1Oc1ccc(F)cc1 [Compound 17, [4-(6-Amino-pyridazin-3-yl)-piperidin-1-yl]-[5-(4-fluoro-phenoxy)-4-methoxy-pyridin-2-yl]-methanone]
[1]
  reduction of BALF Evans blue: 24%
[2]
  pulmonary vascular leakage: significantly reduces pulmonary vascular leakage

## COc1cc(C(=O)N2CCC(c3ccc(N)nn3)CC2)ncc1Oc1ccc(F)cc1 [BI 764198]
[3]
  tolerability: well tolerated
